What was measured:
[1] = biological target: T1, bovine liver β-glucosidase (Bos taurus, UniProt F1MNT6); assay: Glycosidase inhibition, laboratory 1: bovine liver β-glucosidase; type: biochemical; conditions: methanol
T1 sequence (F1MNT6 1-469): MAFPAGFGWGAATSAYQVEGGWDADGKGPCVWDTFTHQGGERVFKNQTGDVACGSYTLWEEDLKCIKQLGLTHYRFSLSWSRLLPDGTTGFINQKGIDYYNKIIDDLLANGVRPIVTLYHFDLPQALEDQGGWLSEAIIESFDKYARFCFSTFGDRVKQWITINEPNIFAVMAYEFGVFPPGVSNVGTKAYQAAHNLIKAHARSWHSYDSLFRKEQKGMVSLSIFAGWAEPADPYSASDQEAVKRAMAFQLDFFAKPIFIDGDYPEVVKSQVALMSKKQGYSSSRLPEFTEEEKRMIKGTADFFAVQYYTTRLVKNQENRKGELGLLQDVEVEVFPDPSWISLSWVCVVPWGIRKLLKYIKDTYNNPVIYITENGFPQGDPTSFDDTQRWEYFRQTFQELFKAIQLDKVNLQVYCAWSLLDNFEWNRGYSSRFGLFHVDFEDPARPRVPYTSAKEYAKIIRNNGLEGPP
Source text: (§1) The enzymes α-glucosidase (from yeast), β-glucosidases (from almond and bovine liver), α-galactosidase (from coffee beans), β-galactosidase (from bovine liver), α-mannosidase (from Jack bean), β-mannosidase (from snail), α-L-rhamnosidase (from Penicillium decumbens), α-L-fucosidase (from bovine kidney), trehalase (from porcine kidney), β-glucuronidases (from E. coli and bovine liver), amyloglucosidase (from A. niger), para-nitrophenyl glycosides, and various disaccharides were purchased from Sigma-Aldrich Co (St Louis, MO, USA).
(§2) Brush border membranes were prepared from the rat small intestine according to the method of Kessler et al. and were assayed at pH 6.8 for rat intestinal maltase using maltose. For rat intestinal maltase, porcine kidney trehalase, and A. niger amyloglucosidase activities, the reaction mixture contained 25 mM maltose and the appropriate amount of enzyme, and the incubations were performed for 10–30 min at 37 °C. The reaction was stopped by heating at 100 °C for 3 min. After centrifugation (600× g; 10 min), the resulting reaction mixture was added to the Glucose CII-test Wako (Wako Pure Chemical Ind., Osaka, Japan). The absorbance at 505 nm was measured to determine the amount of the released D-glucose. Other glycosidase activities were determined using an appropriate para-nitrophenyl glycoside as substrate at the optimum pH of each enzyme. The reaction mixture contained 2 mM of the substrate and the appropriate amount of enzyme. The reaction was stopped by addition of 400 mM Na2CO3. The released para-nitrophenol was measured spectrometrically at 400 nm. All reactions run in methanol.

[2] = test system: BE2-C; assay: MTT cell growth inhibition: BE2-C; type: cell-based; conditions: Homo sapiens, BE(2)-C, read-out: GI50 = Concentration (µM) that inhibits cell growth by 50%; BE2-C neuroblastoma; dose response
[3] = test system: panel of 10 cancer cell lines and a normal cell line (MCF10A); assay: Cancer screening: whole cell line panel; type: cell-based; conditions: for GI50: Homo sapiens, read-out: GI50 values across all cancer cell lines and the normal cell line
[4] = test system: HT29; assay: MTT cell growth inhibition: HT29; type: cell-based; conditions: Homo sapiens, HT-29, read-out: GI50 = Concentration (µM) that inhibits cell growth by 50%; HT29 colon carcinoma; dose response
[5] = test system: MCF10A; assay: MTT cell growth inhibition: MCF10A normal breast; type: cell-based; conditions: Homo sapiens, MCF-10A, read-out: GI50 = Concentration (µM) that inhibits cell growth by 50%
[6] = test system: MIA-Pa-Ca2; assay: MTT cell growth inhibition: MIA-Pa-Ca2; type: cell-based; conditions: Homo sapiens, MIA PaCa-2, read-out: GI50 = Concentration (µM) that inhibits cell growth by 50%; MIA-Pa-Ca2 pancreatic carcinoma; dose response
[7] = test system: SJ-G2; assay: MTT cell growth inhibition: SJ-G2; type: cell-based; conditions: read-out: GI50 = Concentration (µM) that inhibits cell growth by 50%; SJ-G2 glioblastoma; dose response
[8] = test system: Du145; assay: MTT cell growth inhibition: Du145; type: cell-based; conditions: Homo sapiens, DU-145, read-out: GI50 = Concentration (µM) that inhibits cell growth by 50%; Du145 prostate carcinoma; dose response
[9] = test system: panel of 15 glycosidases; assay: Glycosidase inhibition, laboratory 1: whole panel; type: biochemical; conditions: laboratory 1, methanol; range or words over enzymes
Source text: as §1
as §2, with “After centrifugation (600× g; 10 min), the resulting reaction mixture was added to the Glucose CII-test Wako (Wako Pure Chemical Ind., Osaka, Japan).” left out, “The reaction mixture contained 2 mM of the substrate and the appropriate amount of enzyme. The reaction was stopped by addition of 400 mM Na2CO3.” left out, “All reactions run in methanol.” left out

Borocaptate sodium [BSH, reference compound]
inhibition % at 1000 μM ([1]; 1000 μM): ^aNI ^b (15%)

CC1(C)OB(c2ccccc2NC(=O)c2cc(Cl)c(Cl)c(Cl)c2Cl)OC1(C)C [ortho 5, 2,3,4,5-Tetrachloro-N-(2-(4,4,5,5-tetramethyl-1,3,2-dioxaborolan-2-yl)phenyl)benzamide]
GI50 [2]: 16 ± 0.58 µM
inhibition at 10 µM [1]: 21.2%
GI50 [3]: 11 to 27 µM
GI50 [4]: 14 ± 1.7 µM
GI50 [5]: 27 ± 2.8 µM
GI50 [6]: 14 ± 0.25 µM
GI50 [7]: 16 ± 0.91 µM
GI50 [8]: 16 ± 1.9 µM
percent inhibition across the glycosidase panel [9]: no significant inhibition

CC1(C)OB(c2ccc(CN3C(=O)c4c(Cl)c(Cl)c(Cl)c(Cl)c4C3=O)cc2)OC1(C)C [para 3, 4,5,6,7-Tetrachloro-2-(4-(4,4,5,5-tetramethyl-1,3,2-dioxaborolan-2-yl)benzyl)isoindoline-1,3-dione]
GI50 [2]: 8.1 ± 1.7 µM
inhibition at 100 µM ([1]; 100 μM): 4%
GI50 [3]: 3 to 18 µM
GI50 [4]: 5.3 ± 1.3 µM
GI50 [5]: 12 ± 0.58 µM
GI50 [6]: 9.2 ± 1.9 µM
GI50 [7]: 6.6 ± 2.4 µM
GI50 [8]: 5.5 ± 0.23 µM

N[C@@H](Cc1ccc(B(O)O)cc1)C(=O)O [^10B-BPA, reference compound]
inhibition % at 100 μM ([1]; 100 μM): ^cNI ^d (14.2%)

CC1(C)OB(c2cccc(CN3C(=O)c4c(Cl)c(Cl)c(Cl)c(Cl)c4C3=O)c2)OC1(C)C [meta 3, 4,5,6,7-Tetrachloro-2-(3-(4,4,5,5-tetramethyl-1,3,2-dioxaborolan-2-yl)benzyl)isoindoline-1,3-dione]
GI50 [2]: 29 ± 0.58 µM
inhibition at 10 µM [1]: 18.8%
GI50 [3]: 18 to 38 µM
GI50 [4]: 26 ± 2.6 µM
GI50 [5]: 18 ± 1 µM
GI50 [6]: 38 ± 2.9 µM
GI50 [7]: 35 ± 1.7 µM
GI50 [8]: 30 ± 0.41 µM

CC1(C)OB(c2ccccc2CNC(=O)c2cc(Cl)c(Cl)c(Cl)c2Cl)OC1(C)C [ortho 8, 2,3,4,5-tetrachloro-N-(2-(4,4,5,5-tetramethyl-1,3,2-dioxaborolan-2-yl)benzyl)benzamide]
Percent cell growth inhibition across the cell line panel ([3]; 25 μM, range or words over cell lines): almost complete abrogation of cell growth inhibition

Reference: PMC9182199, “Borylated 2,3,4,5-Tetrachlorophthalimide and Their 2,3,4,5-Tetrachlorobenzamide Analogues: Synthesis, Their Glycosidase Inhibition and Anticancer Properties in View to Boron Neutron Capture Therapy” (Molecules, 2022)
